Measured values reported in patent publication US20130045203A1, “Uses of Noscapine and Derivatives in Subjects Diagnosed with FAP” (EMORY UNIVERSITY, priority 2010, published 2013).
Entries after “also recorded” stand apart in the source; their conditions may differ.

Columns and labels:
[1] = system: β-catenin levels in Apc^Min/+ MEFs; experiment: Quantitative western blot of β-catenin levels; assay type: cell-based, mouse
[2] = system: β-catenin activity in Apc^Min/+ MEFs; experiment: Tcf4/β-catenin responsive luciferase reporter assay; assay type: cell-based, mouse
Text: (§1) HCT116 cells harbor an in-frame deletion of one phosphorylation site (Ser^45) in β-catenin that renders is partially active but has wild type APC. […] Because β-catenin is a negative regulator of CDKs inhibitor p21, p21 levels will rise upon restored downregulation of β-catenin and the cell cycle progression will be inhibited allowing cellular apoptosis (FIG. 2A). […] Hohla et al., Cell Cycle, 2009, 8(19):3149-3156.
(§2) This decrease in β-catenin levels does translate in reduction of its activity. A reporter gene luciferase under the control of three cloned copies of a conserved Tcf4/β-catenin responsive element was used and compared with an internal control, i.e., another reporter Renilla activity driven by a (β-catenin independent) promoter (CMV) in all three cell types tested (HCT116, DLD, Apc^Min/+ MEFs).

[3] = system: WT MEFs; experiment: FACS analysis of DNA content; assay type: cell-based, mouse
[4] = system: Apc^Min/+ MEFs; experiment: FACS analysis of DNA content; assay type: cell-based, mouse
[5] = system: tubulin; details: without changing total microtubule polymer mass; cited from earlier work
[6] = Toxicology: histopathology, organ function, hematology; assay type: in vivo, mouse
Experimental: Hematoxylin and eosin stained 5 μm sections of paraffin-embedded brain, lung, liver, kidney, thymus, spleen, heart, and sciatic nerve tissues were analyzed. […] Organ associated toxicity was assessed by measuring organ functions in vehicle-treated and 9-bromonoscapine treated groups. Liver function tests (total bilirubin, alanine transaminase, aspartate aminotransferase, and alkaline phosphate levels) and renal functions tests (blood urea nitrogen and creatinine levels) were similar between drug treated and vehicle-treated groups.

[7] = system: WT MEFs; experiment: Trypan blue exclusion viable/dead cell count; assay type: cell-based, mouse; details: 48 hours
Experimental: (§3) Murine embryonic fibroblasts (MEFs) isolated from Apc^Min/+ mice and wild type mice were treated with either vehicle solution of DMSO or varying concentrations of 9-bromonoscapine for 48 hours. Viable and dead cells were counted in triplicate using exclusion of the vital dye, trypan blue. […] This provided a therapeutic window (5-50 μM) for selective killing of Apc^Min/+ MEFs while causing minimal damage to the WT MEFs (FIG. 1A).

[8] = system: Apc^Min/+ MEFs; experiment: Trypan blue exclusion viable/dead cell count; assay type: cell-based, mouse
Experimental: as §3

[9] = system: WT MEFs; experiment: Confocal microscopy of MT arrays and chromosomes; assay type: cell-based, mouse; details: reversed 24 hours after withdrawal
[10] = system: β-catenin activity in DLD1 cells; experiment: Tcf4/β-catenin responsive luciferase reporter assay; assay type: cell-based; details: p<0.01
Text: as §1, §2

[11] = system: β-catenin activity in HCT116 cells; experiment: as above; assay type: cell-based; details: 8 hours after treatment
Text: as §1, §2

[12] = system: cyclin D1, c-Myc, p21, cleaved caspase-3; experiment: Quantitative western blot of β-catenin target proteins and cleaved caspase-3; assay type: cell-based, mouse
Text: Positively responsive target genes cyclin-D l and c-Myc, and the negatively responsive gene, p21, respond with the restoration of partial loss of function by depleted APC activity after 9-bromonoscapine treatment. […] Furthermore, caspase-3 was activated as measured by the rising levels of cleaved active caspase-3.

[13] = system: Apc^Min/+ MEFs; experiment: Confocal microscopy of MT arrays and chromosomes; assay type: cell-based, mouse; details: 48 hours of treatment, no recovery after drug removal
[14] = system: Apc^Min/+ mice; experiment: Intestinal polyp/adenoma study in Apc^Min/+ mice; assay type: in vivo, mouse; details: for adenoma load, distal intestine: control 12.5±2.9; for adenoma load, distal intestine / adenoma load, proximal intestine: p<0.01; for adenoma load, proximal intestine: control 32.2±2.3
Experimental: Mice were treated either with the vehicle solution alone (control) or 150 mg/kg body weight of 9-bromonoscapine. The mice were analyzed for the number of polyps throughout the gastrointestinal tract of animals. […] Representative bright filed micrographs of hematoxylin and eosine stained 5 μm cross sections from the intestine of vehicle treated control group (FIG. 3A ii, left panel) and 9-bromonoscapine treated group (FIG. 3A ii, right panel) show hyperplastic tissue lesions. In 9-bromonoscapine treated animals, the lesions were not clustered and, when found, seem much more restricted to the individual microvilli and were subdued in appearance (FIG. 3A ii, right panel).
To distinguish between neopolyposis post-treatment versus the growth of apparently existing polyps, two treatment regimens were followed. Treated 1: 9-bromonoscapine oral treatment (150 mg/kg body weight) began after 8 weeks of age and continued daily for 12 weeks prior to the experimental end point (in 20 weeks): Treated 2: 9-bromonoscapine oral administration began 21 days after birth at the same dose level for time matched period until the experimental end point. At this time, animals were euthanized and the entire GI tract was dissected out and flushed with PBS. The intestine was then removed from the colon and cut into three equal segments: proximal, medial, and distal. The colon and all three segments of the intestine were cut open longitudinally, stained with methylene blue prior to examination under a dissecting microscope fitted with a micrometer to aid the measurements. The vertex and co-vertex of each elliptical lesion was measured. The area was then calculated by multiplying the vertex, co-vertex and π (3.14). […] There was no visible difference between the groups of treated 1 and treated 2. The colonic adenomas are known to be rare in Apc^Min/+ mouse models.

[15] = system: WT MEFs; experiment: Annexin V-Alexa Fluor488 / propidium iodide apoptosis FACS; assay type: cell-based, mouse; details: 50 μM, 48 hour treatment
Experimental: (§4) Apoptotic cells that externalize the normal internal membrane lipid, phosphatidylserine, were analyzed by binding a fluorescently conjugated PS-binding protein, Annein V-Alexa Fluor488. These cells can be distinguished from the late apoptotic cells that also allow the DNA dye, Propidium iodide (PI) to penetrate the cell membranes allowing intracellular DNA to bind it. As shown in FIG. 1D i-ii, 73% of Apc^Min/+ MEFs were in early and late stages of apoptosis after a 48 hour treatment with 9-bromonoscapine (50 μM) as compared to a modest 21.6% WT MEFs under identical treatment regimen (FIG. 1D i-ii). 9-Bromonoscapine causes a selective cell death (apoptosis) in MEFs isolated from Apc^Min/+ mice when compared to the WT MEFs providing a therapeutic window from 5-50 μM range.

[16] = system: Apc^Min/+ MEFs; experiment: as above; assay type: cell-based, mouse; details: 50 μM, 48 hour treatment
Experimental: as §4

[17] = drug treated vs vehicle-treated
[18] = Treated 1: oral 150 mg/kg daily from 8 weeks of age for 12 weeks
[19] = Treated 2: oral 150 mg/kg from 21 days after birth to end point

In the case of `COc1ccc2c(c1OC)C(=O)OC2C1c2c(c(Br)c3c(c2OC)OCO3)CCN1C` (stereo not drawn) [9-bromonoscapine, 3-(9-bromoe-4-methoxy-6-methyl-5,6,7,8-tetrahydro-[1,3]dioxolo[4,5-g]isoquinolin-5-yl)-6,7-dimethoxyisobenzofuran-1(3H)-one], the β-catenin levels [1] is reported as “two-fold decrease; also recorded: fell to half the original levels”, the “β-catenin activity lowered to” value ([2]; Apc^Min/+ MEFs, p<0.01) is reported as 59% and the “β-catenin activity (in words)” value ([2]; Apc^Min/+ cells) is reported as “fell to half the original levels”. For the same molecule, the “cell cycle distribution (DNA content)” value [3] was “a decline in G1 and a rise in G2/M”, the “cell cycle distribution (DNA content)” value [4] was “a decline in G1 and a rise in G2/M” and the “sub-G1 DNA content” value ([4]; 48 hours of treatment) was “distinct shift of cells to a sub-G1 DNA content of <2N”. The “tubulin binding affinity relative to noscapine” value [5] was “higher affinity than noscapine”, the “systemic homeostasis (albumin, total protein, glucose) and electrolyte balances (Na+, K+, TCO2)” value ([6]; among the three groups) was “not distinguishable profiles” and the “tissue architecture (H&E sections of brain, lung, liver, kidney, thymus, spleen, heart, sciatic nerve)” value ([6]; blinded observations, treated vs vehicle) was “did not reveal any significant differences”. For the same molecule, the “liver function tests (total bilirubin, alanine transaminase, aspartate aminotransferase, alkaline phosphate levels)” value [6, 17] was “similar”, the “renal functions tests (blood urea nitrogen and creatinine levels)” value [6, 17] was “similar” and the “WBC, RBC counts, hemoglobin concentration, hematocrit, platelet counts” value ([6]; treated vs vehicle) was “no significant differences”. The IC50 [7] was 135 µM, the IC50 ([8]; Apc^Min/+ MEFs, 48 hours, trypan blue exclusion) was 28.6 µM and the “therapeutic window for selective killing of Apc^Min/+ MEFs” value ([8]; minimal damage to WT MEFs) was 5 to 50 µM. The “sensitivity of Apc^Min/+ MEFs relative to WT MEFs” value ([8]; ratio of IC50 values, 48 hours) was 4.7 times, the mitotic phenotype [9] was “typical mitotic arrest with bipolar prometaphase spindles” and the “β-catenin activity lowered to” value [10] was 48%. For the same molecule, the “decline in β-catenin activity” value [11] was 31%, the c-Myc protein level [12] was “down” and the “caspase-3 activation (cleaved active caspase-3)” value [12] was “activated”. The “cyclin D1 protein level” value [12] was “down”, the p21 level [12] was “elevated” and the mitotic phenotype [13] was “highly disorganized, often multipolar mitoses”. For the same molecule, the “number and overall areas of intestinal lesions” value ([14]; 150 mg/kg body weight, methylene blue stained intestine) was “pronounced decrease”, the “apoptotic foci in lesioned tissue (cleaved caspase 3 immunohistochemistry)” value ([14]; 150 mg/kg, basal areas of the villus) was “additional copious apoptotic foci” and the “adenoma load, distal intestine” value [14, 18] was 5.2±0.6 mm2. The “adenoma load, proximal intestine” value [14, 18] was 13.7±1.4 mm^2, the “adenoma load, distal intestine” value [14, 19] was 5.2±0.8 mm2 and the “adenoma load, proximal intestine” value [14, 19] was 11.8±0.8 mm^2. The “total number of adenomas” value ([14]; both treatment groups (Treated 1, Treated 2) vs sham-treated controls, oral 150 mg/kg) was “significant decline”, the “number of big lesions (>3 mm^2 and >1 mm^2)” value ([14]; size distribution bins, oral 150 mg/kg) was “significant decreases” and the “adenoma within the colon” value ([14]; treated vs control) was “did not reveal any apparent differences”. For the same molecule, the “cells in early and late stages of apoptosis” value [15] was 21.6% and the “cells in early and late stages of apoptosis” value [16] was 73%.
With `COc1ccc2c(c1OC)C(=O)OC2C1c2c(cc3c(c2OC)OCO3)CCN1C` (stereo not drawn) [noscapine, 3-(4-methoxy-6-methyl-5,6,7,8-tetrahydro-[1,3]dioxolo[4,5-g]isoquinolin-5-yl)-6,7-dimethoxyisobenzofuran-1(3H)-one] the “cell cycle distribution (DNA content)” value [3] was “reversible G2/M arrest”.
